Nine molecules from patent US9512139B2, “Conformationally constrained, fully synthetic macrocyclic compounds” (POLYPHOR AG, priority 2009, dated 2016) can be followed below.

Molecules are shown by their SMILES. Where only a bound is given, the exact number is not on record here.

One series has as its target T1, human Kv1.3 (Homo sapiens, UniProt P22001).
T1 construct: expressed in transfected cells; host or cells: Jurkat cells
The series is described as follows: Thallium-sensitive fluorescence assay for the voltage gated ion channel Kv1.3 in Jurkat cells. Format: cell-based. As to conditions: for inhibition at 10 µM: Jurkat, read-out: KV1,3 antagonist activity [% Inhibition at 10 μM]; for IC50: read-out: KV1,3 antagonist activity IC50. Here is the method:
2. Assay for the Voltage Gated Ion Channel Kv1.3
Assays were performed and analyized with a FLIPR^TETRA device as specified above.
Compounds for inhibition of ion channel Kv1.3 were assayed in Jurkat cells recombinantly expressing human Kv1.3. For high throughput screening a thallium-sensitive, fluorescence-based assay was used. […] To identify blockers of this ion channel the cells were incubated with different concentrations of compounds 5 min before increasing the potassium and thallium concentration. The fluorescence signals by increasing potassium were then compared in the absence and presence of compounds. Dose response curves were established by adding different concentrations of compounds and analyzing the signal. As reference Kv1.3 blockers margatoxin and quinidine in Cl-free buffer were used as described in the literature.
The results of the Kv1.3 assay are depicted in Table 51 below.

A short description of series [1]: Metabolic stability assay, CD-1 mouse microsomes. As to conditions: microsomes; for Metabolic Stability 60 min mouse [% remain.]: 1 h. In kind it is in vitro ADME.
Series [2] in a line: Metabolic stability assay, human microsomes. In kind it is in vitro ADME. The following applies: human, microsomes; for Metabolic Stability 60 min hum [% remain.]: 1 h.
The nature of series [3]: in vitro. In kind it is in vitro ADME, human. As to conditions: human, plasma; for Plasma Stability 240 min hum [% remain.]: 4 h.
Series [4] is described as follows: in vitro. In kind it is in vitro ADME, mouse. The following applies: plasma; for Plasma Stability 240 min mouse [% remain.]: 4 h.
Another series concerns the target T2, Purinoreceptor P2Y1 (Homo sapiens, UniProt P47900).
T2 construct: host or cells: Ca2+ optimized hematopoietic cell lines (rat)
The series is described as follows: Ca2+ assay (FLIPR) for the GPCR purinoreceptor P2Y1, agonist and antagonist mode. As to conditions: P2Y1 receptor. Format: cell-based. On the procedure: Biological and Pharmacological Methods 1. Ca^2+ Assays for the GPCRs Motilin Receptor, Prostaglandin F (FP) Receptor, 5-hydroxytryptamine 2B (5-HT2B) Receptor, and Purinoreceptor P2Y1
Assays were performed using on a FLIPR^TETRA fluorometric imaging plate reader (Molecular Devices) with ScreenWorks Version 2 (Molecular Devices) as device operating and data analysis software.
Dose dependent agonist and antagonist activities were determined. Percentage activation and percentage inhibition values were determined.
Percentage activation was determined upon initial addition of the sample compounds followed by 10 minutes incubation at 25° C. Following compound incubation, reference agonists were added at EC80 to determine percentage inhibition.
Reference agonists were purchased from reputable commercial vendors and prepared according to each ligand's specifications. All handling of ligands were done to ensure proper control throughout the experiments.
Example compounds were weighed on a Microbalance (Mettler MX5) and dissolved in 100% DMSO to a final concentration of 2.5 mM and subsequently diluted into the assay buffer.
The Assay buffer was a supplemented HBSS (Hank's Balanced Salt Solution). HBSS was supplemented with 20 mM HEPES (4-(2-hydroxyethyl)-piperazin-1-ethansulfonic acid) and 2.5 mM Probenecid (Sigma P8761).
GPCR assays were performed using Ca^2+ optimized hematopoietic cell lines (rat) with cultures never exceeding 90% confluency. Cells were harvested and seeded (from cultures at less than 90% confluency) at 50000 cells/well for a 96-well plate (12500 cells/well for 384). After seeding, the assay plates were incubated for forty-five (45) minutes at room temperature. After room temperature incubation, the assay plates were incubated at 37° C. 5% CO2 for 24 hours prior to assaying.
All GPCR assays were performed using Fluo-8 Ca^2+ dye. Ca^2+ dye was prepared at 1× dye concentration in GPCR assay buffer. After 24 hours of incubation, cells were washed with GPCR assay buffer, and then Ca^2+-dye (100 μL/well) was added.
The plates were incubated for 90 minutes at 30° C. 5% CO2 prior to FLIPR assay.
Compound plates were prepared to add 50 μL/well during the agonist assay mode. During the FLIPR assay, 50 μL/well from the compound plate was diluted 3-fold into the existing 100 μL/well from the dye loading step. Therefore all compounds were prepared as 3× the final concentration desired in the assay.
After completion of the first single addition assay run, assay plate was removed from the FLIPR Tetra and placed at 25° C. for seven (7) minutes before antagonist assay.
Using the EC80 values determined during the agonist assay, all pre-incubated sample compound and reference antagonist (if applicable) wells were stimulated at the EC80 of the reference agonist. As reference ligands for the first three assays their obvious natural ligands motilin, prostaglandin F2α, and serotonin (5-HT, 5-Hydroxytryptamine) were used; and for the P2Y1 assay 2MeSATP (2-methyl-thio-adeno-sine 5′-triphosphate, i.e. (2R,3S,4R)-5-(6-amino-2-methylsulfanyl-purin-9-yl)-3,4-dihydroxy-tetrahydrofuran-2-yl]methyl (hydroxy-phosphonooxy-phosphoryl)hydrogen phosphate) was applied.
After the addition of the reference agonist fluorescence was monitored for 180 sec using FLIPR Tetra.
Data Analysis and Results:
From the FLIPR data, with negative control correction enabled, the maximum statistic for each well was exported and percentage activation relative to Emax control was calculated.
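For Plasma Stability 240 min mouse [% remain.] in this document: sodium citrate stabilized mouse plasma, parent compound quantified by HPLC/MS/MS relative to its peak area at time zero, run in triplicate.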
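For Plasma Stability T½ [min] mouse in this document: sodium citrate stabilized mouse plasma, parent compound quantified by HPLC/MS/MS relative to its peak area at time zero, run in triplicate.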

T2 sequence (P47900 whole entry): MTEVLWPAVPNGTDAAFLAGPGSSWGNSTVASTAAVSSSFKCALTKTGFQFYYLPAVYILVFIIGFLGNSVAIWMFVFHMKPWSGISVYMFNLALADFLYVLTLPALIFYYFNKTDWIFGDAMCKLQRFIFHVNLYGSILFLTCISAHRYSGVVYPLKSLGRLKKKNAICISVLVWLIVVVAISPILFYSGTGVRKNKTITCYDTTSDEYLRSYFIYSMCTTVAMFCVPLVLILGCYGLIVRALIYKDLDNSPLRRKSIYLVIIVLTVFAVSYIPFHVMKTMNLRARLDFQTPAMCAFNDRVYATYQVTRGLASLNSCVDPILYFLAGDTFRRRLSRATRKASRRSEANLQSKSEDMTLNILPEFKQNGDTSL
T1 sequence (P22001 whole entry): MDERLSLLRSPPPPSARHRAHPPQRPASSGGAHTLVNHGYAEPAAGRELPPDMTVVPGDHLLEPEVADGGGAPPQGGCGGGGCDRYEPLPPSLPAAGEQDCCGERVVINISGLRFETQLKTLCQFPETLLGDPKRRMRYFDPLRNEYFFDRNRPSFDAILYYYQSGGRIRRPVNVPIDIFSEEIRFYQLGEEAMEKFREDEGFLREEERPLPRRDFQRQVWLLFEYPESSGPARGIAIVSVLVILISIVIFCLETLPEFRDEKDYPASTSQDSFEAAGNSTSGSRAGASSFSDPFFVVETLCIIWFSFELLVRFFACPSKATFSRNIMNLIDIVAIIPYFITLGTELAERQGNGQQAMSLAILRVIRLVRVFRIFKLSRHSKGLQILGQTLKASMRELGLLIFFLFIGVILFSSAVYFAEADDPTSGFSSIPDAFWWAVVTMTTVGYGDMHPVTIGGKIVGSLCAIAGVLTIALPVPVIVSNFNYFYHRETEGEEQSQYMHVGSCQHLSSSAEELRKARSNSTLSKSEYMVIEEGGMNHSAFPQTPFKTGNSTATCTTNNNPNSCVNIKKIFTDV

As to `CN1CC[C@H](NC(=O)Cc2cccc3ccccc23)C(=O)N2C[C@@H](NC(=O)Cc3ccc4ccccc4c3)C[C@H]2COc2cccc(c2)C1=O` [Ex. 177, N-[(4S,6S,10S)-13-methyl-6-{[2-(2-naphthyl)acetyl]amino}-9,14-dioxo-2-oxa-8,13-diazatricyclo[13.3.1.0^4,8]nonadeca-1(19),15,17-trien-10-yl]-2-(1-naphthyl)acetamide], at human Kv1.3, the inhibition (commonly the drop in the measured response relative to a control, in per cent) at 10 µM was found to be 54% and the IC50 (usually the concentration that inhibits the measured activity by half) turned out to be 3.5 µM.
Take `CN1CCC(NC(=O)OCc2ccccc2)C(=O)N2CC(NC(=O)Cc3ccc4ccccc4c3)CC2COc2cccc(c2)C1=O` [Ex. 168, benzyl N-[(4S,6S,10S)-13-methy1-6-{[2-(2-naphthyl)acetyl]amino}-9,14-dioxo-2-oxa-8,13-diazatricyclo [13.3.1.0^4,8]nonadeca-1(19),15,17-trien-10-yl]carbamate]: the half-life (usually how long it takes for the measured level to halve) at 10 µM in series [1] (both sexes, CD-1, mouse) amounted to 0.433 h. For the same molecule, the “Metabolic Stability 60 min mouse [% remain.]” value in series [1] (both, CD-1, mouse, 10 µM) was 21 % remain. Also, on human Kv1.3, the inhibition at 10 µM stood at 44% and the IC50 worked out at 1.69 µM. In series [2] (both sexes), this molecule came in with a half-life at 10 µM of 0.417 h. The “Metabolic Stability 60 min hum [% remain.]” value in series [2] (both, 10 µM) is on record as 17 % remain. For the same molecule, in the series “in vitro [3]” (10 µM), the Plasma Stability T½ [min] hum is above 240 min and the “Plasma Stability 240 min hum [% remain.]” value turned out to be 85 % remain. In the series “in vitro [4]” (both, CD-1, mouse, 10 µM), the Plasma Stability T½ [min] mouse is above 240 min and the “Plasma Stability 240 min mouse [% remain.]” value stood at 99 % remain.
On Purinoreceptor P2Y1, `CN1CC(=O)N2C[C@H](NC(=O)CCc3ccncc3)C[C@H]2CSc2cccc(c2)C(=O)N(C)[C@H](C(=O)NCc2ccc3ccccc3c2)CCC1=O` [Ex. 321, (4S,6R,15S)-11,16-dimethyl-N-(2-naphthylmethyl)-9,12,17-trioxo-6-{[3-(4-pyridinyl)propanoyl]amino}-2-thia-8,11,16-triazatricyclo[16.3.1.0^4,8]docosa-1(22),18,20-triene-15-carboxamide] yielded an IC50 of 7.5 µM and an inhibition at 10 µM of 45%.
In the case of `CCCCC(=O)N[C@@H]1C[C@H]2CSc3cccc(c3)C(=O)N(C)[C@H](C(=O)NCc3ccc4ccccc4c3)CCC(=O)N(C)CC(=O)N2C1` [Ex. 322, (4S,6R,15S)-11,16-dimethyl-N-(2-naphthylmethyl)-9,12,17-trioxo-6-(pentanoylamino)-2-thia-8,11,16-triazatricyclo[16.3.1.0^4,8]docosa-1(22),18,20-triene-15-carboxamide], on Purinoreceptor P2Y1, the inhibition at 10 µM was determined as 60%.
Turning to `CCCCC(=O)N[C@H]1C[C@H]2COc3cccc(c3)C(=O)N(C)CC[C@H](NC(=O)c3ccc4ccccc4c3)C(=O)N2C1` [Ex. 171, N-[(4S,6S,10S)-13-methyl-9,14-dioxo-6-(pentanoylamino)-2-oxa-8,13-diazatricyclo[13.3.1.0^4,8]nonadeca-1(19),15,17-trien-10-yl]-2-naphthamide], the inhibition at 10 µM on human Kv1.3 was determined as 12%.
Turning to `CCCCC(=O)N[C@H]1C[C@H]2COc3cccc(c3)C(=O)N(C)CC[C@H](NC(=O)CCc3ccncc3)C(=O)N2C1` [Ex. 170], in series [1] (mouse), the Metabolic Stability T½ [min] mouse is above 60 min and the “Metabolic Stability 60 min mouse [% remain.]” value was determined as 86 % remain. Also, the “KV1,3 antagonist activity [% Inhibition at 10 μM]” value on human Kv1.3 (10 μM) is listed as 10%. Also, in series [2], the Metabolic Stability T½ [min] hum was above 60 min and the “Metabolic Stability 60 min hum [% remain.]” value amounted to 60 % remain. Also, in the series “in vitro [3]”, the Plasma Stability T½ [min] hum is above 240 min and the “Plasma Stability 240 min hum [% remain.]” value is reported as 92 % remain. Besides, in the series “in vitro [4]” (mouse), the Plasma Stability T½ [min] mouse was above 240 min and the “Plasma Stability 240 min mouse [% remain.]” value stood at 100 % remain.
On to `CCCCC(=O)N[C@H]1C[C@H]2COc3cccc(c3)C(=O)N(C)CC[C@H](NC(=O)OCc3ccccc3)C(=O)N2C1` [Ex. 166, benzyl N-[(4S,6S,10S)-13-methyl-9,14-dioxo-6-(pentanoylamino)-2-oxa-8,13-diazatricyclo[13.3.1.0^4,8]nonadeca-1(19),15,17-trien-10-yl]carbamate], for which the inhibition at 10 µM on human Kv1.3 was determined as 20%.
`CN1CC(=O)N2C[C@H](NC(=O)OC(C)(C)C)C[C@H]2CSc2cccc(c2)C(=O)N(C)[C@H](C(=O)NCc2ccc3ccccc3c2)CCC1=O` [Ex. 316, tert-butyl N-[(4S,6R,15S)-11,16-dimethyl-15-{[(2-naphthylmethyl)amino]carbonyl}-9,12,17-trioxo-2-thia-8,11,16-triazatricyclo[16.3.1.0^4,8]docosa-1(22),18,20-trien-6-yl]carbamate] yielded an inhibition at 10 µM at Purinoreceptor P2Y1 of 57%.
In turn, `CC(=O)N[C@@H]1C[C@H]2CSc3cccc(c3)C(=O)N(C)[C@H](C(=O)NCc3ccc4ccccc4c3)CCC(=O)N(C)CC(=O)N2C1` [Ex. 320, (4S,6R,15S)-6-(acetylamino)-11,16-dimethyl-N-(2-naphthylmethyl)-9,12,17-trioxo-2-thia-8,11,16-triazatricyclo[16.3.1.0^4,8]docosa-1(22),18,20-triene-15-carboxamide] yielded an inhibition at 10 µM at Purinoreceptor P2Y1 of 19%.
